Source: patent US20230295058A1, “SYSTEMS AND METHODS FOR GENERATION OF HYPERPOLARIZED COMPOUNDS USING PARAHYDROGEN” (NVISION IMAGING TECHNOLOGIES GMBH, priority 2020, published 2023)
Where two headings read alike, the source gives them in different places.

Experiments:
variety of cell lines = assay: cytotoxicity of clean fumarate samples following precipitation; type: cell-based; conditions: precipitated, washed and redissolved samples, even at high concentrations (FIG. 10)
Experimental: FIG. 10 depicts the results of cytotoxicity experiments performed using samples of precipitated, washed and redissolved sodium fumarate generated in accordance with disclosed embodiments
The clean fumarate samples following precipitation were tested for cytotoxicity using a variety of cell lines. FIG. 10 depicts the result of the cell line experiments.

[1] = cited from earlier work

Row | Structure (SMILES) | cytotoxicity (variety of cell lines) | maximal mole fraction in n-heptane ([1]; 14.8° C.) | maximal mole fraction in n-heptane ([1]; −29.2° C.)
1 | O=C([O-])/C=C/[13C](=O)[O-].[Na+].[Na+] [sodium fumarate, sodium fumarate-1-^13C] | No toxicity was visible | – | –
2 | CC(=O)O [acetic acid] | – | 0.935 | 0.02
